Here are results for 52 sequences from the supplement of paper PMC11208160.

The nature of the data set: recombinant UMI read abundance after kanamycin selection (control-corrected) (log10(CPM+1)); higher = more efficient recombination; extreme values may be limits of the assay; sequences stand for … in AGTGCAGAGAAAATCGGCCAGTTTTCTCTGCCTGCAGTCCGCATGCCGTGGGACCCCTTGGGTTCTAACCTGTTGCCTAGATTTATGCAGCGGACTGCCTTTCTCCCAAAGTGATAAACCGG…AGGTTGGTTTCACT; site = the 11-nt donor. The method in brief:
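Sequenced counts of recombinant UMIs were turned into CPM, averaged across replicates and scaled with control-derived factors. The reported figure is log10(CPM+1). Those UMIs, each 12 nt long, tagged donor and donor-binding-loop pairs on a plasmid with a promoterless kanamycin gene, screened as a pool in Escherichia coli with IPTG (0.07 mM) plus kanamycin or without selection.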
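Note: IS621 bridge recombinase in Escherichia coli cells against a fixed T5 target plasmid.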

On to “GCAGTGGCATGGACCGGTTTTCCCGGTAATCCGTATTTGGT (site GGAGTGGCTAC)”, for which the “recombinant UMI read abundance (log10)” value worked out at 0.276.

With “GCAGTGGCATGGACCGGTTTTCCCGGTAATCCGTATTTGGT (site GTAGTGGCTAC)”, the “recombinant UMI read abundance (log10)” value was found to be 0.0239.

With “GCATACCCATGGACCGGTTTTCCCGGTAATCCGTATTTGAC (site GCATACCCTGT)”, the “recombinant UMI read abundance (log10)” value was found to be 1.04. For “GCATCAGCATGGACCGGTTTTCCCGGTAATCCGTATTTGTG (site GCATCAGCTCA)” the value was 1.49; for “GCATGGGCATGGACCGGTTTTCCCGGTAATCCGTATTTGAG (site GCATGGGCTCT)”, 1.33.

On to “GCATTATCATGGACCGGTTTTCCCGGTAATCCGTATTTGGC (site GCATTATCTGC)”, for which the “recombinant UMI read abundance (log10)” value amounted to 2.82. Next, “GCCAAGCCATGGACCGGTTTTCCCGGTAATCCGTATTTGTA (site GCCAAGCCTTA)”: 1.69; “GCCAAGCCATGGACCGGTTTTCCCGGTAATCCGTATTTGTA (site GCCACGCCTTA)”: 0.00534. Next, “GCCAAGCCATGGACCGGTTTTCCCGGTAATCCGTATTTGTA (site GCCAGGCCTTA)”: 0.00969; “GCCAAGCCATGGACCGGTTTTCCCGGTAATCCGTATTTGTA (site GCCATGCCTTA)”: 0.00407. For “GCCACGACATGGACCGGTTTTCCCGGTAATCCGTATTTGTA (site GCCACGACTTA)” the value was 2.11; for “GCCACGACATGGACCGGTTTTCCCGGTAATCCGTATTTGTA (site GCCACGCCTTA)”, 0.00858; for “GCCACGACATGGACCGGTTTTCCCGGTAATCCGTATTTGTA (site GCCACGGCTTA)”, 0.423. For the sequence “GCCACGACATGGACCGGTTTTCCCGGTAATCCGTATTTGTA (site GCCACGTCTTA)”, the “recombinant UMI read abundance (log10)” value turned out to be 0.283. For “GCCAGGACATGGACCGGTTTTCCCGGTAATCCGTATTTGTT (site GCCAGGACTAA)” the value was 1.71; for “GCCAGGCCATGGACCGGTTTTCCCGGTAATCCGTATTTGTA (site GCCAAGCCTTA)”, 0.198.

“GCCAGGCCATGGACCGGTTTTCCCGGTAATCCGTATTTGTA (site GCCACGCCTTA)”: the “recombinant UMI read abundance (log10)” value is 0.00645.

“GCCAGGCCATGGACCGGTTTTCCCGGTAATCCGTATTTGTA (site GCCAGGCCTTA)”: the “recombinant UMI read abundance (log10)” value was 0.112. Next, “GCCAGGCCATGGACCGGTTTTCCCGGTAATCCGTATTTGTA (site GCCATGCCTTA)”: 0.00384; “GCCATATCATGGACCGGTTTTCCCGGTAATCCGTATTTGTC (site ACCATATCTGA)”: 1.74. For “GCCATATCATGGACCGGTTTTCCCGGTAATCCGTATTTGTC (site CCCATATCTGA)” the value was 0.61; for “GCCATATCATGGACCGGTTTTCCCGGTAATCCGTATTTGTC (site GCCATATCTGA)”, 1.87; for “GCCATATCATGGACCGGTTTTCCCGGTAATCCGTATTTGTC (site TCCATATCTGA)”, 1.87. Next, “GCCCACCCATGGACCGGTTTTCCCGGTAATCCGTATTTGAA (site GCCCACCCTTT)”: 0.362; “GCCCCTACATGGACCGGTTTTCCCGGTAATCCGTATTTGCC (site GCCCCTACTGG)”: 2.33; “GCCCGAACATGGACCGGTTTTCCCGGTAATCCGTATTTGTC (site GCCCGAACTGA)”: 1.98. “GCCGACTCATGGACCGGTTTTCCCGGTAATCCGTATTTGCG (site GCCGACTCTCG)”: the “recombinant UMI read abundance (log10)” value amounted to 2.35. Next, “GCCGAGCCATGGACCGGTTTTCCCGGTAATCCGTATTTGTA (site GCCGAGCCTTA)”: 0.381; “GCCGCACCATGGACCGGTTTTCCCGGTAATCCGTATTTGGA (site GCCGCACCTTC)”: 0.0196; “GCCGCGCCATGGACCGGTTTTCCCGGTAATCCGTATTTGGG (site GCCGCGCCTCC)”: 0.0148. “GCCGTCCCATGGACCGGTTTTCCCGGTAATCCGTATTTGCA (site GCCGTCCCTTG)”: the “recombinant UMI read abundance (log10)” value is 0.345.

On to “GCCTACCCATGGACCGGTTTTCCCGGTAATCCGTATTTGAA (site GCCTACCCTTT)”, for which the “recombinant UMI read abundance (log10)” value is 0.0461.

Turning to “GCCTAGACATGGACCGGTTTTCCCGGTAATCCGTATTTGGG (site ACCTAGACTCC)”, the “recombinant UMI read abundance (log10)” value stood at 0.186. Next, “GCCTAGACATGGACCGGTTTTCCCGGTAATCCGTATTTGGG (site CCCTAGACTCC)”: 0.0341; “GCCTAGACATGGACCGGTTTTCCCGGTAATCCGTATTTGGG (site GCCTAGACTCC)”: 0.283; “GCCTAGACATGGACCGGTTTTCCCGGTAATCCGTATTTGGG (site TCCTAGACTCC)”: 0.0888. For “GCCTAGCCATGGACCGGTTTTCCCGGTAATCCGTATTTGCC (site ACCTAGCCTGG)” the value was 0; for “GCCTAGCCATGGACCGGTTTTCCCGGTAATCCGTATTTGCC (site CCCTAGCCTGG)”, 0; for “GCCTAGCCATGGACCGGTTTTCCCGGTAATCCGTATTTGCC (site GCCTAGCCTGG)”, 0. For “GCCTAGCCATGGACCGGTTTTCCCGGTAATCCGTATTTGCC (site TCCTAGCCTGG)” the value was 0; for “GCCTCCCCATGGACCGGTTTTCCCGGTAATCCGTATTTGGA (site GCCTCCCCTTC)”, 0.0286. On to “GCCTGGACATGGACCGGTTTTCCCGGTAATCCGTATTTGGC (site GCCTGGACTGC)”, for which the “recombinant UMI read abundance (log10)” value was found to be 0.0803. For “GCCTTCACATGGACCGGTTTTCCCGGTAATCCGTATTTGTT (site GCCTTCACTAA)” the value was 0.931. For “GCCTTCTCATGGACCGGTTTTCCCGGTAATCCGTATTTGGG (site ACCTTCTCTCC)”, the “recombinant UMI read abundance (log10)” value was found to be 0.00678.

Turning to “GCCTTCTCATGGACCGGTTTTCCCGGTAATCCGTATTTGGG (site CCCTTCTCTCC)”, the “recombinant UMI read abundance (log10)” value amounted to 0.0122.

For “GCCTTCTCATGGACCGGTTTTCCCGGTAATCCGTATTTGGG (site GCCTTCTCTCC)”, the “recombinant UMI read abundance (log10)” value turned out to be 0.00741. For “GCCTTCTCATGGACCGGTTTTCCCGGTAATCCGTATTTGGG (site TCCTTCTCTCC)” the value was 0.0193; for “GCGAAACCATGGACCGGTTTTCCCGGTAATCCGTATTTGGG (site GCGAAACCTCC)”, 0; for “GCGAAACCATGGACCGGTTTTCCCGGTAATCCGTATTTGGG (site GCGAACCCTCC)”, 0.0118. For “GCGAAACCATGGACCGGTTTTCCCGGTAATCCGTATTTGGG (site GCGAAGCCTCC)” the value was 0.0136; for “GCGAAACCATGGACCGGTTTTCCCGGTAATCCGTATTTGGG (site GCGAATCCTCC)”, 0. For “GCGAAACCATGGACCGGTTTTCCCGGTAATCCGTATTTGTG (site GCGAAACCTCA)”, the “recombinant UMI read abundance (log10)” value is 0.
